# Measured values from patent US20070293399A1, “SUBSTITUTED DIAMINO-1,3,5-TRIAZINES, PROCESSES FOR THEIR PREPARATION AND THEIR USE AS HERBICIDES AND CROP GROWTH REGULATORS” (Bayer CropScience AG, priority 2006, published 2007).
# Columns and labels:
# [1] = test system: Stellaria media, Lolium multiflorum, Amaranthus retroflexus, Sinapis alba, Avena sativa and Setaria viridis; test: Pre-emergence herbicidal action (greenhouse pot test); type: in vivo; conditions: application rate of 1 kg or less of active substance per hectare; scored visually after 3 to 4 weeks in comparison to untreated controls
# Text: Seeds or rhizome pieces of mono- and dicotyledonous weed plants were placed in sandy loam in plastic pots and covered with soil. The inventive compounds, which have been formulated in the form of wettable powders or emulsion concentrates, were then applied to the surface of the covering soil as an aqueous suspension or emulsion in different dosages with an application rate of from 600 to 800 l/ha of water (converted).
# [2] = test system: Sinapis alba, Echinochloa crus-galli, Lolium multiflorum, Stellaria media, Cyperus iria, Amaranthus retroflexus, Setaria viridis, Avena sativa, Lamium …; test: Post-emergence herbicidal action (greenhouse pot test); type: in vivo; conditions: application rate of 1 kg and less of active substance per hectare; treated at three-leaf stage; scored visually after approx. 3 to 4 weeks in comparison to untreated controls
# Method: Seeds or rhizome pieces of mono- and dicotyledonous weeds were placed in sandy loam in plastic pots, covered with soil and grown in a greenhouse under good growth conditions. Three weeks after the sowing, the test plants were treated at the three-leaf stage. The inventive compounds formulated as spray powders or as emulsion concentrates were sprayed onto the green plant parts in various dosages with an application rate of from 600 to 800 l/ha of water (converted). After the test plants had been left to stand in the greenhouse under optimal growth conditions for approx. 3 to 4 weeks, the action of the preparations was scored visually in comparison to untreated controls. The inventive compositions also had good post-emergence herbicidal activity against a wide spectrum of economically important gramineous and broadleaf weeds.
Compound,herbicidal action against harmful plants in the pre-emergence method [1],herbicidal action against harmful plants in the post-emergence method [2]
"CC(=Nc1nc(N[C@@H]2CCCc3ccccc32)nc([C@@H](C)F)n1)N(C)C [Compound 2.159, N′-{4-[(1R)-1-Fluoroethyl]-6-[(1R)-1,2,3,4-tetrahydronaphth-1-ylamino]-1,3,5-triazin2-yl}-N,N-dimethylethanimide amide]",very good herbicidal action,very good herbicidal action
CC(=Nc1ncnc(N[C@H]2c3cc(C)ccc3C[C@@H]2C)n1)N(C)C [Compound 2.160],very good herbicidal action,very good herbicidal action
Cc1ccc2c(c1)[C@H](Nc1nc(C)nc(N=CN(C)C)n1)[C@@H](C)C2 [Compound 2.170],very good herbicidal action,very good herbicidal action
C[C@@H]1Cc2ccccc2[C@@H]1Nc1nc(N=CN(C)C)nc(C(F)F)n1 [Compound 2.175],very good herbicidal action,very good herbicidal action
Cc1ccc2c(c1)[C@H](Nc1nc(N=CN(C)C)nc(C(F)F)n1)[C@H](C)C2 [Compound 2.176],very good herbicidal action,very good herbicidal action
CC(=Nc1nc(N[C@H]2c3cc(C)ccc3C[C@H]2C)nc(C(F)F)n1)N(C)C [Compound 2.177],very good herbicidal action,very good herbicidal action
Cc1ccc2c(c1)[C@H](Nc1nc(N=CN3CCCCC3)nc(C(F)F)n1)[C@H](C)C2 [Compound 2.181],very good herbicidal action,very good herbicidal action
Cc1ccc2c(c1)[C@H](Nc1nc(C=O)nc(C(F)F)n1)[C@H](C)C2 [Compound 2.190],very good herbicidal action,very good herbicidal action
CCOC(C)=Nc1nc(N[C@H]2c3cc(C)ccc3C[C@H]2C)nc(C(F)F)n1 [Compound 2.191],very good herbicidal action,very good herbicidal action
C[C@@H](F)c1nc(C=O)nc(N[C@@H]2CCCc3ccccc32)n1 [Compound 2.193],very good herbicidal action,very good herbicidal action
Cc1ccc2c(c1)[C@H](Nc1ncnc(C=O)n1)[C@H](C)C2 [Compound 2.194],very good herbicidal action,very good herbicidal action
Cc1ccc2c(c1)[C@H](Nc1nc(C=O)nc([C@@H](C)F)n1)[C@H](C)C2 [Compound 2.195],very good herbicidal action,very good herbicidal action
